Literature values in patent US7491312B2, “Identifying therapeutic compounds based on their physical-chemical properties” (Edison Pharmaceuticals, Inc., priority 2002, dated 2009).

Target: amyloid-β fibril formation (Homo sapiens, UniProt P05067)
Settings: compounds with an apomorphine core structure (FIG. 8)

Chain of amyloid-β fibril formation (P05067 672-711 limits assumed): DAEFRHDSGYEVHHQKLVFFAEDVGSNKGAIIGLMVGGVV

Structure (SMILES) | reduction of fibril growth [%]
CN1CCc2cccc3c2[C@H]1Cc1ccc(O)c(O)c1-3 [apomorphine] | 99
COc1ccc2c(c1O)-c1cccc3c1C(C2)N(C)CC3 (centres unmarked) [apocodeine] | 5
